Results: ChEMBL document CHEMBL5537192, “Specific Inhibitors of Mitochondrial Deacylase Sirtuin 4 Endowed with Cellular Activity” (J Med Chem, 2024)

Legend:
C2C12 = experiment: Cytotoxicity against mouse C2C12 cells assessed as effect o cell viability at 1 to 100 uM incubated for 4 hrs by trypan blue reagent based phase contrast microscopic analysis; assay type: toxicity; details: c2c12, 4 h, dose 1-100 µM
[1] = target: T1, NAD-dependent protein lipoamidase sirtuin-4, mitochondrial (Homo sapiens, UniProt Q9Y6E7); experiment: Inhibition of N-terminal 6His-tagged human Sirt4 (25 to 314 residues) expressed in Escherichia coli CodonPlus(DE3) cells using HMG-FdL as substrate at 100 uM preincubated for 20 mins followed by NAM addition and measured after 45 mins in presence of NAD+ by fluorescence based assay relative to control
T1 sequence (Q9Y6E7 whole entry): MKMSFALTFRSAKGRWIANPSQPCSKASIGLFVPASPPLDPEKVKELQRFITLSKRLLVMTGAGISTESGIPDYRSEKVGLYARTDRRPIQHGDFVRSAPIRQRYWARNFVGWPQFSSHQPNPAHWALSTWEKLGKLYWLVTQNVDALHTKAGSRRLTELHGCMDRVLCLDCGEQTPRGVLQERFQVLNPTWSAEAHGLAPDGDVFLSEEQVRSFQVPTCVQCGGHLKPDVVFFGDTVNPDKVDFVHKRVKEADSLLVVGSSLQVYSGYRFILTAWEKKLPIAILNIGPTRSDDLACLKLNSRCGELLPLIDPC

IC50 [1] [µM] | Structure (SMILES) | Activity (C2C12)
– | CCCc1cc(=O)[nH]c(SCC(=O)Nc2ccc(S(=O)(=O)c3ccc([N+](=O)[O-])cc3)cc2)n1 | Non-Toxic
~126 | NC(=O)C1=CN([C@@H]2O[C@H](COP(=O)(O)OP(=O)(O)OC[C@H]3O[C@@H](n4cnc5c(N)ncnc54)[C@H](O)[C@@H]3O)[C@@H](O)[C@H]2O)C=CC1 | –
